Values of other authors in paper PMC5852599, “Microfluidic Devices for Drug Delivery Systems and Drug Screening” (Genes, 2018).

System: breast cancer cells (Her-2)
Design: method as in PMID 20237849
Details: 3D tumor spheroid in alginate hydrogel, compared to 2D cell culture

Compound: COc1cccc2c1C(=O)c1c(O)c3c(c(O)c1C2=O)C[C@@](O)(C(=O)CO)C[C@@H]3O[C@H]1C[C@H](N)[C@H](O)[C@H](C)O1 [doxorubicin]
- effectiveness on cell viability and proliferation: lower effectiveness
